Experimental data: US4929739A, “Complexes of tellurium and selenium derivatives” (Bar-Ilan University, priority 1988, dated 1990)
Like-named read-outs stand apart in the source and are kept apart here.

What was measured:
[1] = preliminary toxicity studies in mice; format: in vivo; conditions: 6 week old mice
Method: (§1) Preliminary toxicity studies in mice have established an LD50 of 300 μg./25 g of body weight in 6 week old mice for the compound of Example 1. The compounds may be used as anti-bacterial or anti-viral agents in plants or in animals. Virus infections such as West Nile virus infections in mice are susceptible to the compound of the Example 1 at a dose of 10 μg/day/mouse. Plant bacterial infections such as crown gall caused by Agrobacterium tumefaciens may be treated or prevented by the application of a 0.1% solution of compounds of the invention.

West Nile virus = West Nile virus infections in mice; format: in vivo; conditions: 10 μg/day/mouse
Method: as §1

[2] = system: producer T-cell lymphocytes; assay: lymphokine production in producer T-cell lymphocytes in vitro; format: cell-based; conditions: alone
[3] = system: producer T-cell lymphocytes; assay: lymphokine production in producer T-cell lymphocytes in vivo; conditions: alone
IL-2 producer cells = assay: proliferation of IL-2 producer cells; format: cell-based
IL-2 = assay: mouse spleen assay, IL-2 activity of supernatants (tritiated thymidine); format: cell-based, mouse (male Balb-c); conditions: for IL-2 activity, 12.5% supernatant / IL-2 activity, 25% supernatant: Table 1, PMA, 96 h; for IL-2 production, supernatant 12.5% / IL-2 production, supernatant 25%: Table 2; for IL-2 activity, 12.5% supernatant / IL-2 production, supernatant 12.5%: 12.5% supernatant; for IL-2 activity, 25% supernatant / IL-2 production, supernatant 25%: 25% supernatant
Method: Two citrate buffer solutions are prepared by combining aqueous 0.05M sodium citrate with 0.05M citric acid or 0.1M sodium citrate and 0.1M citric acid. […] To these solutions are added up to 5 mg/ml of ammomium trichloro (dioxoethylene-0,0') tellurate.
After storage at various temperatures for about two and a half months, dilutions of these solutions were prepared and a mouse spleen assay was performed as follows:
Spleens were removed from male Balb-c mice 6 to 8 weeks of age. The spleen cells were pushed through stainless steel 60 mesh (U.S. standard) nets resting in […] Petri dishes containing PBS in order to separate the cells. The cells were then collected into centrifuge tubes and spun at 1000 rpm for 10 minutes. The supernatant was discarded and cells were treated with 5 ml of hypotonic buffer (0.15 MNH4 Cl; 0.01M KHCO3 dissolved in double distilled water, pH 7.2) for exactly two minutes. Thereafter, PBS* was added to the cells amd the test tubes were centrifuged for 10 minutes at 1000 rpm. The cells were rinsed twice and counted in a heamocytometer using trypan blue to test for viability. The cells were brought to a concentration of 10^7 viable cells/ml. […] Thereafter, the cells were incubated at 37° C., 7.5% CO2 for 96 h. Supernatants were collected and assayed for IL-2 activity using tritiated thymidine (^3 H-TdR).
A 0.04M tartrate buffer in also prepared using the same procedures. The complex is formed by adding ammonium trichloro (dioxoethylene-0,0'-) tellurate to the aqueous tartrate buffer. The effectiveness of the complex in stimulating IL-2 production was determined in the mouse spleen assay.

human mononuclear cells = assay: stimulation of human mononuclear cells, proliferation (3H-methylthymidine); format: cell-based; set-up: unit not given here; conditions: Table 3
Method: Citrate and tartrate complexes of ammonium trichloro (dioxoethylene-0,0') tellurate are tested for the stimulation of human mononuclear cells.
Venous whole blood (with heparin; Evans 10 IU/ml blood) is diluted with RPMI in a ratio of 1:1. […] Each tube is provided with 3 ml Lymphoprep and 6 to 7 ml diluted blood. The tubes are centrifuged 30 minutes at 1600 rpm at room temperature. After the centrifugation mononuclear cells are collected from the interphase fraction and washed with RPMI three times. The cells are resuspended in RPMI, counted on a hemocytometer, using trypan blue to test for viability and then are brought to a concentration of […] in enriched RPMI. The concentrations set forth in Table 3 were added in a volume of 10% of cell mixture. Aliquots of 0.2 ml from each sample were placed in wells of microplates (NUNC) (triplicates). The microplates are incubated for 72 hours at 37° C. after which ^ 3 H-methylthymidine, 1U Ci/well (Nuclear Research Center, Israel) are added to the cultures. Cells were further incubated overnight and harvested with a cell harvester.

[4] = solubilization in aqueous buffer; format: physicochemical
Text: The complexes of the invention may be formed by contacting a compound of Formulas A-E with a non-toxic pharmaceutically acceptable complexing agent which forms a water soluble complex with said tellurium or selenium compound. Suitable complexing agents include hydroxy polycarboxylic acids, polycarboxylic acids or polyhydroxy polycarboxylic acids. Generally, it is preferred to prepare the complexes of the invention by contacting a compound of Formulas A-E with a buffer system containing either citric acid or tartaric acid and a corresponding alkali metal salt thereof, such as sodium or potassium.
Generally equimolar amounts of acids and the corresponding alkali metal salts may be combined in aqueous solutions with a compound of Formulas A-E to form the complex of the invention; 0.05M-0.5M concentration of the buffer are preferred but higher or lower amounts may be utilized provided that the concentration is adequate to dissolve the particular compound of Formulas A-E. Higher molarities may be used to provide concentrates that may be diluted prior to IV administration or to prepare other dosage forms. The amount of the compound of Formulas A-E is dependent on the ultimate use of the product. […] This is in contrast to the phosphate buffer (PBS) from which only about 200 mcg/ml of ammonium trichloro (dioxoethylene-0,0') tellurate can be solubilized. […]

Cl[Te]1(Cl)(Cl)OCCO1.N [Example 1, ammomium trichloro (dioxoethylene-0,0') tellurate]
LD50 [1]: 300 μg./25 g of body weight | susceptibility of West Nile virus infections (West Nile virus): susceptible

O=[Te]=O [TeO2]
induction of lymphokine production in vitro [2]: will induce lymphokine production | induction of lymphokine production in vivo [3]: will induce lymphokine production | proliferation in producing cells such as IL-2 producer cells (IL-2 producer cells): will not cause proliferation

Cl[TeH]1(Cl)(Cl)OCCO1 [ammonium trichloro (dioxoethylene-0,0') tellurate]
IL-2 activity, 12.5% supernatant (IL-2; 0.05 μg/ml): 1865 cpm | IL-2 activity, 25% supernatant (IL-2; 0.05 μg/ml): 3762 cpm | IL-2 activity, 12.5% supernatant (IL-2; 0.1 μg/ml): 28035 cpm | IL-2 activity, 25% supernatant (IL-2; 0.1 μg/ml): 44378 cpm | IL-2 activity, 25% supernatant (IL-2; 0.5 μg/ml ammonium trichloro(dioxoethylene) tellurate): 43833 cpm | IL-2 activity, 12.5% supernatant (IL-2; 0.5 μg/ml): 35270 cpm | IL-2 production, supernatant 12.5% (IL-2; 0.05 μg/ml): 1865 cpm | IL-2 production, supernatant 12.5% (IL-2; 0.1 μg/ml): 28035 cpm | IL-2 production, supernatant 25% (IL-2; 0.1 μg/ml): 44378 cpm | IL-2 production, supernatant 12.5% (IL-2; 0.5 μg/ml): 35270 cpm | IL-2 production, supernatant 25% (IL-2; 0.5 μg/ml): 43833 cpm | IL-2 production, supernatant 25% (IL-2): 3762 cpm | proliferation of mononuclear cells (human mononuclear cells; 0.05 μg/ml, PMA 0.5 ng/ml cells): 6663 | proliferation of mononuclear cells (human mononuclear cells; 0.05 μg/ml, PMA 1.5 ng/ml cells): 12923 | proliferation of mononuclear cells (human mononuclear cells; 0.1 μg/ml, PMA 0.5 ng/ml cells): 19810 | proliferation of mononuclear cells (human mononuclear cells; 0.1 μg/ml, PMA 1.5 ng/ml cells): 42857 | proliferation of mononuclear cells (human mononuclear cells; 0.5 μg/ml, PMA 0.5 ng/ml cells): 2945 | proliferation of mononuclear cells (human mononuclear cells; 0.5 μg/ml, PMA 1.5 ng/ml cells): 3287 | solubility ([4]; citrate buffer, aqueous buffer, read-out: concentration solubilized in citrate): ≥ 5000 µg/mL | solubility ([4]; phosphate buffer (pbs), read-out: concentration solubilized in phosphate buffer): ~200 µg/mL
